“And” between values parts separate entries of the source, which are not always exact repeats. Equal entries are not always repeated. Inconclusive results and toxic doses are left out.
Test system: L1210 leukemia ip in BDF1 mice, survival T/C
Experiment: NCI In Vivo Anticancer Drug Screen. Data for tumor model L1210 Leukemia (intraperitoneal) in B6D2F1 (BDF1) mice
Details: endpoint: mean survival time, higher = longer survival
Summary of the method: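 Read-out is survival time, reported as the treated-group measurement over the vehicle-control measurement.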

[1] = dose: 100.0 mg/kg/injection, schedule: Q01DX001 (ip), vehicle: Klucel (hydroxypropylcellulose) (HPC)
[2] = dose: 200.0 mg/kg/injection, schedule: Q01DX001 (ip), vehicle: Klucel (hydroxypropylcellulose) (HPC)
[3] = dose: 400.0 mg/kg/injection, schedule: Q01DX001 (ip), vehicle: Klucel (hydroxypropylcellulose) (HPC)
[4] = dose: 50.0 mg/kg/injection, schedule: Q04DX002 (ip), vehicle: saline
[5] = dose: 100.0 mg/kg/injection, schedule: Q04DX002 (ip), vehicle: saline
[6] = dose: 200.0 mg/kg/injection, schedule: Q04DX002 (ip), vehicle: saline
[7] = dose: 100.0 mg/kg/injection, schedule: Q01DX009 (ip), vehicle: saline with Tween-80

## OC1CC2CCC(C1)S2 (centres undefined)
dose: 50.0 mg/kg/injection, schedule: Q01DX001 (ip), vehicle: Klucel (hydroxypropylcellulose) (HPC)
  T/C: 100 % of control
[1]
  T/C: 105 % of control
[2]
  T/C: 96 % of control

## O=c1[nH]cnc2c1nnn2C1OC(CO)C(O)C1O (centres undefined)
dose: 90.0 mg/kg/injection, schedule: Q01DX009 (ip), vehicle: saline
  T/C: 155 % of control and 160 % of control
dose: 135.0 mg/kg/injection, schedule: Q01DX009 (ip), vehicle: saline
  T/C: 163 % of control

## O=C(c1ccccc1)c1ccn[nH]1
[1]
  T/C: 106 % of control
[2]
  T/C: 103 % of control
[3]
  T/C: 108 % of control

## O=c1ccoc(-c2cc(=O)cco2)c1
dose: 25.0 mg/kg/injection, schedule: Q04DX003 (ip), vehicle: saline with Tween-80
  T/C: 97 % of control
dose: 50.0 mg/kg/injection, schedule: Q04DX003 (ip), vehicle: saline with Tween-80
  T/C: 93 % of control
dose: 100.0 mg/kg/injection, schedule: Q04DX003 (ip), vehicle: saline with Tween-80
  T/C: 95 % of control

## O=C(c1c(F)c(F)c(F)c(F)c1F)N1CC1
dose: 25.0 mg/kg/injection, schedule: Q01DX009 (ip), vehicle: water
  T/C: 96 % of control
dose: 50.0 mg/kg/injection, schedule: Q01DX009 (ip), vehicle: water
  T/C: 93 % of control

## N#CCC(=O)N1Cc2cc3ccccc3nc2C1
dose: 100.0 mg/kg/injection, schedule: Q04DX003 (ip), vehicle: saline sonified
  T/C: 115 % of control
dose: 200.0 mg/kg/injection, schedule: Q04DX003 (ip), vehicle: saline sonified
  T/C: 95 % of control
dose: 400.0 mg/kg/injection, schedule: Q04DX003 (ip), vehicle: saline sonified
  T/C: 101 % of control

## O=C1OCCC1C(=O)C(O)(C(F)(F)F)C(F)(F)F (centres undefined)
dose: 100.0 mg/kg/injection, schedule: Q01DX009 (ip), vehicle: other
  T/C: 96 % of control
dose: 200.0 mg/kg/injection, schedule: Q01DX009 (ip), vehicle: other
  T/C: 100 % of control
dose: 400.0 mg/kg/injection, schedule: Q01DX009 (ip), vehicle: other
  T/C: 94 % of control

## Cc1cc(C(=O)O)c(C(=O)O)c(Cl)n1
dose: 75.0 mg/kg/injection, schedule: Q01DX001 (ip), vehicle: other
  T/C: 90 % of control
dose: 150.0 mg/kg/injection, schedule: Q01DX001 (ip), vehicle: other
  T/C: 95 % of control
dose: 300.0 mg/kg/injection, schedule: Q01DX001 (ip), vehicle: other
  T/C: 91 % of control

## COc1cc2c(cc1O)C(CCc1cc(OC)c(OC)c(OC)c1)=NCC2
[4]
  T/C: 101 % of control
[5]
  T/C: 104 % of control
[6]
  T/C: 104 % of control

## Cc1ccc(NC(=O)NCc2ccco2)cc1
dose: 222.0 mg/kg/injection, schedule: Q01DX Z (ip), vehicle: methylcellulose (MC)
  T/C: 94 % of control
dose: 333.0 mg/kg/injection, schedule: Q01DX Z (ip), vehicle: methylcellulose (MC)
  T/C: 100 % of control
dose: 500.0 mg/kg/injection, schedule: Q01DX Z (ip), vehicle: methylcellulose (MC)
  T/C: 94 % of control

## CS(=O)(=O)N(CC(=O)O)Cc1ccc(Cl)cc1
dose: 100.0 mg/kg/injection, schedule: Q04DX003 (ip), vehicle: other
  T/C: 102 % of control
dose: 200.0 mg/kg/injection, schedule: Q04DX003 (ip), vehicle: other
  T/C: 105 % of control
dose: 400.0 mg/kg/injection, schedule: Q04DX003 (ip), vehicle: other
  T/C: 98 % of control

## c1ccc2cc(C3OCC4(CCCC4)CO3)ccc2c1
dose: 100.0 mg/kg/injection, schedule: Q04DX002 (ip), vehicle: Klucel (hydroxypropylcellulose) (HPC)
  T/C: 103 % of control
dose: 200.0 mg/kg/injection, schedule: Q04DX002 (ip), vehicle: Klucel (hydroxypropylcellulose) (HPC)
  T/C: 95 % of control
dose: 400.0 mg/kg/injection, schedule: Q04DX002 (ip), vehicle: Klucel (hydroxypropylcellulose) (HPC)
  T/C: 103 % of control

## O=C(O)CNCCN1CC(=O)NC1=S
dose: 100.0 mg/kg/injection, schedule: Q04DX002 (ip), vehicle: saline with Tween-80
  T/C: 107 % of control
dose: 200.0 mg/kg/injection, schedule: Q04DX002 (ip), vehicle: saline with Tween-80
  T/C: 92 % of control
dose: 400.0 mg/kg/injection, schedule: Q04DX002 (ip), vehicle: saline with Tween-80
  T/C: 90 % of control

## O=C(CCCc1ccc(N(CCCl)CCCl)cc1)OCCc1ccccc1
dose: 25.0 mg/kg/injection, schedule: Q04DX002 (ip), vehicle: saline
  T/C: 111 % of control
[4]
  T/C: 114 % of control
[5]
  T/C: 124 % of control
[6]
  T/C: 112 % of control and 122 % of control
dose: 400.0 mg/kg/injection, schedule: Q04DX002 (ip), vehicle: saline
  T/C: 112 % of control

## O=S(=O)(Cc1ccccc1)Nc1cccc(S(=O)(=O)OCc2ccccc2)c1
[1]
  T/C: 102 % of control
dose: 100.0 mg/kg/injection, schedule: Q01DX009 (ip), vehicle: Klucel (hydroxypropylcellulose) (HPC)
  T/C: 104 % of control
dose: 100.0 mg/kg/injection, schedule: Q04DX003 (ip), vehicle: Klucel (hydroxypropylcellulose) (HPC)
  T/C: 100 % of control
[2]
  T/C: 98 % of control
dose: 200.0 mg/kg/injection, schedule: Q01DX009 (ip), vehicle: Klucel (hydroxypropylcellulose) (HPC)
  T/C: 95 % of control
dose: 200.0 mg/kg/injection, schedule: Q04DX003 (ip), vehicle: Klucel (hydroxypropylcellulose) (HPC)
  T/C: 94 % of control
[3]
  T/C: 106 % of control
dose: 400.0 mg/kg/injection, schedule: Q01DX009 (ip), vehicle: Klucel (hydroxypropylcellulose) (HPC)
  T/C: 97 % of control
dose: 400.0 mg/kg/injection, schedule: Q04DX003 (ip), vehicle: Klucel (hydroxypropylcellulose) (HPC)
  T/C: 92 % of control

## C=C(C)C12OC3(c4ccccc4)OC1C1C4OC4(CO)C(O)C4(O)C(=O)C(C)=CC4C1(O3)C(C)C2OC(=O)/C=C/C=C/c1ccccc1 (centres undefined)
dose: 25.0 micrograms/kg/injection, schedule: Q01DX009 (ip), vehicle: alcohol
  T/C: 97 % of control
dose: 50.0 micrograms/kg/injection, schedule: Q01DX009 (ip), vehicle: alcohol
  T/C: 105 % of control
dose: 100.0 micrograms/kg/injection, schedule: Q01DX009 (ip), vehicle: alcohol
  T/C: 92 % of control
dose: 200.0 micrograms/kg/injection, schedule: Q01DX009 (ip), vehicle: alcohol
  T/C: 92 % of control
dose: 400.0 micrograms/kg/injection, schedule: Q01DX009 (ip), vehicle: alcohol
  T/C: 103 % of control

## CC(C)N1CCC1C (centres undefined)
dose: 100.0 mg/kg/injection, schedule: Q04DX003 (ip), vehicle: acetone
  T/C: 96 % of control

## CC(C)(CC(=O)O)CC(=O)OCC(=O)[C@@]1(O)CC[C@H]2[C@@H]3CCC4=CC(=O)C=C[C@]4(C)[C@H]3[C@@H](O)C[C@@]21C
dose: 20.0 mg/kg/injection, schedule: Q01DX009 (ip), vehicle: steriod suspending solution
  T/C: 103 % of control
dose: 40.0 mg/kg/injection, schedule: Q01DX009 (ip), vehicle: steriod suspending solution
  T/C: 103 % of control
dose: 50.0 mg/kg/injection, schedule: Q01DX001 (sc), vehicle: steriod suspending solution
  T/C: 102 % of control
dose: 80.0 mg/kg/injection, schedule: Q01DX009 (ip), vehicle: steriod suspending solution
  T/C: 111 % of control
dose: 100.0 mg/kg/injection, schedule: Q01DX001 (sc), vehicle: steriod suspending solution
  T/C: 100 % of control
dose: 100.0 mg/kg/injection, schedule: Q01DX009 (sc), vehicle: steriod suspending solution
  T/C: 93 % of control
dose: 100.0 mg/kg/injection, schedule: Q04DX003 (sc), vehicle: steriod suspending solution
  T/C: 98 % of control
dose: 200.0 mg/kg/injection, schedule: Q01DX001 (sc), vehicle: steriod suspending solution
  T/C: 113 % of control
dose: 200.0 mg/kg/injection, schedule: Q01DX009 (sc), vehicle: steriod suspending solution
  T/C: 104 % of control and 118 % of control
dose: 200.0 mg/kg/injection, schedule: Q04DX003 (sc), vehicle: steriod suspending solution
  T/C: 110 % of control
dose: 400.0 mg/kg/injection, schedule: Q01DX001 (sc), vehicle: steriod suspending solution
  T/C: 107 % of control
dose: 400.0 mg/kg/injection, schedule: Q01DX009 (sc), vehicle: steriod suspending solution
  T/C: 102 % of control and 124 % of control
dose: 400.0 mg/kg/injection, schedule: Q04DX003 (sc), vehicle: steriod suspending solution
  T/C: 104 % of control

## COC(=O)c1ccc(Cl)cc1[N+](=O)[O-]
dose: 100.0 mg/kg/injection, schedule: Q01DX009 (ip), vehicle: saline
  T/C: 101 % of control
dose: 200.0 mg/kg/injection, schedule: Q01DX009 (ip), vehicle: saline
  T/C: 100 % of control
dose: 400.0 mg/kg/injection, schedule: Q01DX009 (ip), vehicle: saline
  T/C: 100 % of control

## O=C(COc1ccc(Cl)cc1Cl)Nc1ccccc1F
dose: 50.0 mg/kg/injection, schedule: Q01DX009 (ip), vehicle: saline with Tween-80
  T/C: 92 % of control
[7]
  T/C: 98 % of control and 87 % of control
dose: 200.0 mg/kg/injection, schedule: Q01DX009 (ip), vehicle: saline with Tween-80
  T/C: 89 % of control
dose: 400.0 mg/kg/injection, schedule: Q01DX009 (ip), vehicle: saline with Tween-80
  T/C: 95 % of control

## CC(O)C[As](=O)(O)c1cccc(Cl)c1 (centres undefined)
dose: 12.5 mg/kg/injection, schedule: Q01DX001 (ip), vehicle: Klucel (hydroxypropylcellulose) (HPC)
  T/C: 108 % of control

## CC(C)(C)c1ccc(O)cc1
[7]
  T/C: 89 % of control

— PubChem BioAssay AID248 (DTP/NCI, 2004)
